Experimental data taken from ChEMBL document CHEMBL1151098, “Design of pyrrolo-1,4-benzoxazine derivatives as inhibitors of 5-lipoxygenase and PAF antagonists with anthihistaminic properties” (Bioorg Med Chem Lett, 1994).
The source made the active and inactive calls. The calls are words filed in the database; no cut-off is given here.

Experiments:
[1] = target: T1, Polyunsaturated fatty acid 5-lipoxygenase (Rattus norvegicus, UniProt P12527); test: Inhibitory activity against 5-lipoxygenase in rat neutrophils as inhibition of A 23,187-induced LTB4 production
T1 sequence (P12527 whole entry): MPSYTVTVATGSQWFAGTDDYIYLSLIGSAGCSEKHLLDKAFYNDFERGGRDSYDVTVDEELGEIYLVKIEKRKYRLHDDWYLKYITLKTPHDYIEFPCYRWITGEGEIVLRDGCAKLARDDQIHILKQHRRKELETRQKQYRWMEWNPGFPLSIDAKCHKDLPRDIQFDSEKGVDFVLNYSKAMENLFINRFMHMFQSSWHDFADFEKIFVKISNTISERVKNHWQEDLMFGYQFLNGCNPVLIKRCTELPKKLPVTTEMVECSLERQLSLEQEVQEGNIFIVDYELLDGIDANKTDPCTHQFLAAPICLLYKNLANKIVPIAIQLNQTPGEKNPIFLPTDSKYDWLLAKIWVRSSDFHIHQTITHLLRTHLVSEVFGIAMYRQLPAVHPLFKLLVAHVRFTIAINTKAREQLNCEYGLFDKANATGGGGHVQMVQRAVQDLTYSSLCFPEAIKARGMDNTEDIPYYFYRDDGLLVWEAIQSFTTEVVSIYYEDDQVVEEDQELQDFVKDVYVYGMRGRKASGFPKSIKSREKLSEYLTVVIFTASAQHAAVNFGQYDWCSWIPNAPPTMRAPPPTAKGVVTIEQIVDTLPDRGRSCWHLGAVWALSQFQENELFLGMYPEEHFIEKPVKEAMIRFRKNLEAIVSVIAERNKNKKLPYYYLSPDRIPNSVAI

[2] = In vivo inhibitory activity of histamine induced cutaneous reaction was determined at a conc. of 2.1E-5 mol/ Kg; Not active; assay type: functional, organism-based
[3] = organism: Oryctolagus cuniculus; test: Inhibitory activity of PAF-induced aggregation was determined on rabbit platelets; assay type: functional
[4] = In vivo inhibitory activity of histamine induced cutaneous reaction was determined at a conc. of 2.1E-5 mol/ Kg; assay type: functional
[5] = organism: Oryctolagus cuniculus; test: Inhibitory activity of PAF-induced aggregation was determined on rabbit platelets; Not active at 10e-5 M; assay type: functional

Q: Which IC50 [1] does the source give for Cc1ccnc(N2CCN(CCC3Cn4c(-c5ccc(O)c(O)c5)c(C)c5cccc(c54)O3)CC2)c1 (stereo not drawn) here?
A: 1.9 µM

Q: And the inhibition [2]?
A: inactive

Q: And the IC50 [3]?
A: 4.7 µM

Q: For Cc1c(-c2ccc(O)cc2)n2c3c(cccc13)OC(CCN1CCN(c3ccccn3)CC1)C2 (stereo not drawn), which IC50 [1] is on record?
A: 2.2 µM

Q: What about the Inhibition [4] of the same molecule?
A: 47%

Q: And the IC50 [3]?
A: 8.1 µM

Q: Which IC50 [1] does the source give for Cc1ccnc(N2CCN(CCC3Cn4c(-c5cc(C)c(O)c(C)c5)c(C)c5cccc(c54)O3)CC2)c1 (stereo not drawn) here?
A: 1.5 µM

Q: What about the Inhibition [4] of the same molecule?
A: 15%

Q: And the IC50 [3]?
A: 1.6 µM

Q: Which IC50 [1] does the source give for Cc1cccc(N2CCN(CCC3Cn4c(-c5ccc(O)cc5)c(C)c5cccc(c54)O3)CC2)n1 (stereo not drawn) here?
A: 3.3 µM

Q: What about the Inhibition [4] of the same molecule?
A: 39%

Q: What about the IC50 [3] of the same molecule?
A: 10.2 µM

Q: Which IC50 [1] does the source give for Cc1ccnc(N2CCN(CCC3Cn4c(-c5cc(C)c(O)c(C)c5)c(C)c5cc(O)cc(c54)O3)CC2)c1 (stereo not drawn) here?
A: 0.29 µM

Q: What about the Inhibition [4] of the same molecule?
A: 37%

Q: What about the IC50 [3] of the same molecule?
A: 0.45 µM

Q: What does the source list for COc1cc(-c2c(C)c3cccc4c3n2CC(CCN2CCN(c3cc(C)ccn3)CC2)O4)ccc1O (stereo not drawn)?
A: IC50 [1]: 3.2 µM; Inhibition [4]: 2%; IC50 [3]: 5 µM

Q: What does the source list for Cc1ccc(N2CCN(CCC3Cn4c(-c5ccc(O)cc5)c(C)c5cccc(c54)O3)CC2)nc1 (stereo not drawn)?
A: IC50 [1]: 3.1 µM; Inhibition [4]: 58%; IC50 [3]: 9.9 µM

Q: Which IC50 [1] does the source give for Cc1ccnc(N2CCN(CCC3Cn4c(-c5ccc(O)cc5)c(C)c5cccc(c54)O3)CC2)c1 (stereo not drawn) here?
A: 3 µM

Q: And the Inhibition [4]?
A: 10%

Q: What about the IC50 [3] of the same molecule?
A: 2.7 µM

Q: What does the source list for COc1ccc2[nH]c(-c3cc(C)c(O)c(C)c3)c(C)c2c1?
A: IC50 [1]: 0.11 µM; inhibition [2]: inactive; IC50 [5]: Not Active

Q: What does the source list for Cc1cccnc1N1CCN(CCC2Cn3c(-c4ccc(O)cc4)c(C)c4cccc(c43)O2)CC1 (stereo not drawn)?
A: IC50 [1]: 2.3 µM; Inhibition [4]: 57%; IC50 [3]: 7.2 µM

Q: Which results are given for COc1cc2c3c(c1)c(C)c(-c1cc(C)c(O)c(C)c1)n3CC(CCN1CCN(c3cc(C)ccn3)CC1)O2 (stereo not drawn)?
A: IC50 [1]: 7.6 µM; Inhibition [4]: 32%; IC50 [3]: 2.9 µM
